Experimental data published in paper PMC6511943, “Structure-Guided Drug Design of 6-Substituted Adenosine Analogues as Potent Inhibitors of Mycobacterium tuberculosis Adenosine Kinase” (Journal of Medicinal Chemistry, 2019).

Test system: Mtb H37Rv-resistant mutants (adoK D251N, Q172P, G262S)
Assay type: cell-based, Mycobacterium tuberculosis

SMILES: Nc1ncnc2c1c(I)cn2[C@@H]1O[C@H](CO)[C@@H](O)[C@H]1O [Compound 2, Iodotubercidin]
- MIC: > 100 µM
